Like-named read-outs stand apart in the source and are kept apart here.
Key:
MelBSt WT = target: T1, MelBSt WT (Salmonella typhimurium, UniProt P30878); test: [3H]Melibiose transport time course with DW2 intact cells expressing MelBSt WT; type: cell-based; details: 0.4 mM [3H]melibiose
T1 construct: Cys scanning mutagenesis for the full-length MelBSt; expressed in transfected cells; host or cells: E. coli DW2 (melA+, melB-, lacZ-Y-)
Method: Fig. 1 Functional characterizations. a [^3H] Melibiose transport time course with intact cells. E. coli DW2 strain (melB^−, lacZ^−Y^−) expressed with the WT, D59C, or D59A MelBSt mutants were subjected to [^3H]melibiose active transport assay at 0.4 mM and 10 mCi/mmol in the presence of 20 mM or 100 mM NaCl or LiCl by a fast filtration method. Inset, melibiose fermentation assay. Transformants with DW2 strain were plated on MacConkey agar plates containing 30 mM melibiose as the sole carbohydrate source and pH sensor neutral red, and incubated at 37 °C for 16–18 h before imaging. Number of tests = 3, from different batch of cells or duplicate measurements from same batch of sample. b Ligand binding by Trp→dansyl galactoside (D^2G) FRET assay. Purified proteins at 1 μM concentration in 20 mM Tris-HCl, pH 7.5, 100 mM CholCl, 10% glycerol, and 0.03% UDM were subjected to steady-state fluorescence measurements as described in Methods. On the time-trace, 1.8 μL of 1 mM D^2G at 10 μM was added into 180 μL of protein solutions at 1-min point, followed by supplying 10 μL of 5 mM DDMB or 5 mM α-NPG to displace the bound D^2G. For testing Na^+ or Li^+ binding, they are added into the solution before displacement with the second sugar. The structure of DDMB or α-NPG is shown in a chair form, and the carbon positions are labeled. Glycosidic bonds are indicated by arrows. Both are α-galactosides containing a substituent at the anomeric carbon-1. The data were from duplicate measurements.
The overexpression of MelBSt was carried out in the E. coli DW2 strain (melA^+, melB^−, and lacZ^−Y^−) from a constitutive expression plasmid pK95ΔAH/MelBSt/CHis10[9],[28],[33]. The D59C or D59A mutant with Cys or Ala at the position 59, respectively, was constructed previously[9] or in this study by QuikChange Site-Directed Mutagenesis kit and confirmed by DNA sequencing analysis. E. coli DW2 cells containing a given plasmid were grown in Luria-Bertani (LB) broth (5 g yeast extract and 10 g tryptone per liter with 171 mM NaCl) with 100 mg/L of ampicillin in a 37 °C shaker. The overnight cultures were diluted by 5% with LB broth supplemented with 0.5% glycerol and 100 mg/L of ampicillin, and constitutive overexpression was obtained by shaking at 30 °C for another 5 h.
E. coli DW2 cells expressing MelBSt were washed with 100 mM KPi, pH 7.5, to remove Na^+ contamination as described previously. The cell pellets were resuspended with the assay buffer (100 mM KPi, pH 7.5, 10 mM MgSO4) and adjusted to A420 of 10 (∼0.7 mg protein/ml). Using a fast filtration, transport time course at 0.4 mM melibiose (at specific activity of 10 mCi/mmol) was carried out in the absence or presence of NaCl or LiCl at 20 mM or 100 mM, respectively, and intracellular melibiose was determined as described previously.

WT MelBSt = target: T2, WT MelBSt (Salmonella typhimurium, UniProt P30878); details: ITC 25 °C, data from publication or averaged with more tests, read-out: Kd of substrate binding, Melibiose, cited from earlier work
T2 construct: Cys scanning mutagenesis for the full-length MelBSt; His10 (C); made in house; host or cells: E. coli DW2
T2 sequence (P30878 whole entry): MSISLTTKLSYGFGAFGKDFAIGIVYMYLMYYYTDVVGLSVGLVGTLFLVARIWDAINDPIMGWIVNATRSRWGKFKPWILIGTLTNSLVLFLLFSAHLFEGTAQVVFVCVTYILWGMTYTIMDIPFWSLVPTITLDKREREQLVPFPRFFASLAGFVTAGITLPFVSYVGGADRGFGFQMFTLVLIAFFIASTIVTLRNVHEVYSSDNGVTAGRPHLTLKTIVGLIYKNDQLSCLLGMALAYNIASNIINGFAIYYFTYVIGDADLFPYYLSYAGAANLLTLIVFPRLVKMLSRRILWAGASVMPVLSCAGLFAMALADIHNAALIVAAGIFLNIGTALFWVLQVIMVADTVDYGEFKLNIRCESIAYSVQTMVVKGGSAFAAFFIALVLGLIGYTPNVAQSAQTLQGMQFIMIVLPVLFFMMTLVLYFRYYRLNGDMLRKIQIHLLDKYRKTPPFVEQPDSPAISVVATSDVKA

T1 sequence (P30878 whole entry): as above

Structure (SMILES): OC[C@H]1O[C@H](OCC2O[C@@H](O)[C@H](O)[C@@H](O)[C@@H]2O)[C@H](O)[C@@H](O)[C@H]1O (stereo partly drawn) [Melibiose]
- Melibiose transport (MelBSt WT; H+, Time 0.08333): 4.65
- Melibiose transport (MelBSt WT; H+, Time 0.16667): 11.5871
- Melibiose transport (MelBSt WT; H+, Time 0.5): 17.8175
- Melibiose transport (MelBSt WT; H+, Time 1): 26.1053
- Melibiose transport (MelBSt WT; H+, Time 2): 32.522
- Melibiose transport (MelBSt WT; H+, Time 5): 41.2117
- Melibiose transport (MelBSt WT; H+, Time 10): 51.4376
- Melibiose transport (MelBSt WT; H+, Time 30): 52.9751
- Melibiose transport (MelBSt WT; Li+, 20 mM, Time 0.08333): 5.082
- Melibiose transport (MelBSt WT; Li+, 20 mM, Time 0.16667): 9.37
- Melibiose transport (MelBSt WT; Li+, 20 mM, Time 0.5): 20.2553
- Melibiose transport (MelBSt WT; Li+, 20 mM, Time 1): 29.5856
- Melibiose transport (MelBSt WT; Li+, 20 mM, Time 2): 49.8958
- Melibiose transport (MelBSt WT; Li+, 20 mM, Time 5): 106.047
- Melibiose transport (MelBSt WT; Li+, 20 mM, Time 10): 190.811
- Melibiose transport (MelBSt WT; Li+, 20 mM, Time 30): 313.001
- Melibiose transport (MelBSt WT; Li+, 100 mM, Time 0.08333): 13.3342
- Melibiose transport (MelBSt WT; Li+, 100 mM, Time 0.16667): 15.8108
- Melibiose transport (MelBSt WT; Li+, 100 mM, Time 0.5): 32.509
- Melibiose transport (MelBSt WT; Li+, 100 mM, Time 1): 62.5704
- Melibiose transport (MelBSt WT; Li+, 100 mM, Time 2): 85.8864
- Melibiose transport (MelBSt WT; Li+, 100 mM, Time 5): 142.587
- Melibiose transport (MelBSt WT; Li+, 100 mM, Time 10): 325.223
- Melibiose transport (MelBSt WT; Li+, 100 mM, Time 30): 437.5
- Melibiose transport (MelBSt WT; Na+, 20 mM, Time 0.08333): 6.156
- Melibiose transport (MelBSt WT; Na+, 20 mM, Time 0.16667): 13.1731
- Melibiose transport (MelBSt WT; Na+, 20 mM, Time 0.5): 23.5532
- Melibiose transport (MelBSt WT; Na+, 20 mM, Time 1): 28.6147
- Melibiose transport (MelBSt WT; Na+, 20 mM, Time 2): 46.7036
- Melibiose transport (MelBSt WT; Na+, 20 mM, Time 5): 103.453
- Melibiose transport (MelBSt WT; Na+, 20 mM, Time 10): 203.925
- Melibiose transport (MelBSt WT; Na+, 20 mM, Time 30): 320.843
- Melibiose transport (MelBSt WT; Na+, 100 mM, Time 0.08333): 7.0516
- Melibiose transport (MelBSt WT; Na+, 100 mM, Time 0.16667): 7.9788
- Melibiose transport (MelBSt WT; Na+, 100 mM, Time 0.5): 20.0324
- Melibiose transport (MelBSt WT; Na+, 100 mM, Time 1): 44.6398
- Melibiose transport (MelBSt WT; Na+, 100 mM, Time 2): 78.2935
- Melibiose transport (MelBSt WT; Na+, 100 mM, Time 5): 118.81
- Melibiose transport (MelBSt WT; Na+, 100 mM, Time 10): 202.959
- Melibiose transport (MelBSt WT; Na+, 100 mM, Time 30): 340.508
- Kd (WT MelBSt; Apo): 9.28 ± 0.23 mM
- Kd (WT MelBSt; Na+ (100 mM)): 1.09 ± 0.06 mM

— PMC8329300, “X-ray crystallography reveals molecular recognition mechanism for sugar binding in a melibiose transporter MelB” (Communications Biology, 2021)
